In patent EP4488269A1, “TRIAZOLE COMPOUNDS FOR THE CONTROL OF INVERTEBRATE PESTS” (BASF SE, priority 2023, dated 2025) one finds mortality data, which are given here for seven compounds.

Format in all cases: in vivo
Assay [1] has as its system green peach aphid (Myzus persicae). Nature of the assay: Green peach aphid control through systemic means (artificial diet, 96-well plates). Particulars: 72 h, adult aphids on treated diet, 3 days, read-out: mortality in comparison with untreated controls. The text has this: B.1 Green Peach Aphid (Myzus persicae)
For evaluating control of green peach aphid (Myzus persicae) through systemic means, the test unit consisted of 96-well-microtiter plates containing liquid artificial diet under an artificial mem brane.
The compounds were formulated using a solution containing 75% v/v water and 25% v/v DMSO. Different concentrations of formulated compounds were pipetted into the aphid diet, using a custom built pipetter, at two replications.
After application, 5 - 8 adult aphids were placed on the artificial membrane inside the microtiter plate wells. The aphids were then allowed to suck on the treated aphid diet and incubated at about 23 ± 1°C and about 50 ± 5 % relative humidity for 3 days. Aphid mortality and fecundity was then visually assessed.

In assay [2] the test system is tobacco budworm (Heliothis virescens). Nature of the assay: Tobacco budworm control (insect diet with eggs, 96-well plates). Particulars: for mortality at 2500 ppm: 120 h, egg and larval mortality, 5 days, read-out: mortality in comparison with untreated controls; for mortality at 25 ppm: test B.2, 25 ppm, comparison with prior art, read-out: % mortality in comparison to untreated controls. On the procedure: B.2 Tobacco budworm (Heliothis virescens)
For evaluating control of tobacco budworm (Heliothis virescens), the test unit consisted of 96-well-microtiter plates containing an insect diet and 15-25 H. virescens eggs.
The compounds were formulated using a solution containing 75% v/v water and 25% v/v DMSO. Different concentrations of formulated compounds were sprayed onto the insect diet at 10µl, using a custom-built micro atomizer, at two replications.
After application, microtiter plates were incubated at about 28 ± 1°C and about 80 ± 5 % relative humidity for 5 days. Egg and larval mortality was then visually assessed.

The subject of assay [3] is boll weevil (Anthonomus grandis). Nature of the assay: Boll weevil control (insect diet with eggs, 96-well plates). Particulars: 120 h, egg and larval mortality, 5 days, read-out: mortality in comparison with untreated controls. On the procedure:
B.3 Boll weevil (Anthonomus grandis)
For evaluating control of boll weevil (Anthonomus grandis), the test unit consisted of 96-well-microtiter plates containing an insect diet and 5-10 A. grandis eggs.
The compounds were formulated using a solution containing 75% v/v water and 25% v/v DMSO. Different concentrations of formulated compounds were sprayed onto the insect diet at 5µl, using a custom-built micro atomizer, at two replications.
After application, microtiter plates were incubated at about 25 ± 1°C and about 75 ± 5 % relative humidity for 5 days. Egg and larval mortality was then visually assessed.

The test system of assay [4] is Southern armyworm (Spodoptera eridania), 2nd instar larvae. Nature of the assay: Southern armyworm foliar spray test on lima bean plants. Particulars: 96 h, 4 days after treatment, read-out: mortality in comparison with untreated controls. On the procedure: B.4. Southern armyworm (Spodoptera eridania), 2nd instar larvae
The active compounds were formulated by a Tecan liquid handler in 100% cyclohexanone as a 10,000-ppm solution supplied in tubes. The 10,000-ppm solution was serially diluted in 100% cyclohexanone to make interim solutions. These served as stock solutions for which final dilutions were made by the Tecan in 50% acetone:50% water (v/v) into 10 or 20ml glass vials. A non-ionic surfactant (Kinetic®) was included in the solution at a volume of 0.01% (v/v). The vials were then inserted into an automated electrostatic sprayer equipped with an atomizing nozzle for application to plants/insects. Lima bean plants (variety Sieva) were grown 2 plants to a pot and selected for treatment at the 1st true leaf stage. Test solutions were sprayed onto the foliage by an automated electrostatic plant sprayer equipped with an atomizing spray nozzle. The plants were dried in the sprayer fume hood and then removed from the sprayer. Each pot was placed into perforated plastic bags with a zip closure. Ten to 11 armyworm larvae were placed into the bag and the bags zipped closed. Test plants were maintained in a growth room at about 25°C and about 20-40% relative humidity for 4 days, avoiding direct exposure to fluorescent light (14:10 light:dark photoperiod) to prevent trapping of heat inside the bags. Mortality and reduced feeding were assessed 4 days after treatment, compared to untreated control plants.

The subject of assay [5] is yellow fever mosquito (Aedes aegypti). Nature of the assay: whole plant or invertebrate. Particulars: 48 h, larval mortality, 2 days, read-out: mortality in comparison with untreated controls. As for the experimental part: B.5 Yellow fever mosquito (Aedes aegypti)
For evaluating control of yellow fever mosquito (Aedes aegypti) the test unit consisted of 96-well-microtiter plates containing 200µl of tap water per well and 5-15 freshly hatched A. aegypti larvae.
The active compounds were formulated using a solution containing 75% (v/v) water and 25% (v/v) DMSO. Different concentrations of formulated compounds or mixtures were sprayed onto the insect diet at 2.5µl, using a custom-built micro atomizer, at two replications.
After application, microtiter plates were incubated at 28 ± 1°C, 80 ± 5 % RH for 2 days. Larval mortality was then visually assessed.

One may read the mortality as the percentage killed. In the case of `CC(NC(=O)c1cc(C(F)(F)F)cc(C(F)(F)F)c1)c1nccnc1-c1ncn(-c2cccnc2)n1` (stereo not drawn) [Compound I-1, N-[1-[3-[1-(3-pyridyl)-1,2,4-triazol-3-yl]pyrazin-2-yl]ethyl]-3,5-bis(trifluoromethyl)benzamide], the mortality at 2500 ppm in assay [1], in assay [2], in assay [3] and in assay [5] was not below 75% in each case. For the same compound, the mortality at 300 ppm in assay [4] is not below 75%.

Turning to `CC(NC(=O)c1cc(C(F)(F)F)cc(C(F)(F)F)c1)c1nccnc1-c1ncn(-c2cccnc2N)n1` (stereo not drawn) [Compound I-2, N-[1-[3-[1-(2-amino-3-pyridyl)-1,2,4-triazol-3-yl]pyrazin-2-yl]ethyl]-3,5-bis(trifluoromethyl)benzamide], the mortality at 2500 ppm in assay [1], in assay [2], in assay [3] and in assay [5] was not below 75% in each case. The mortality at 300 ppm in assay [4] was not below 75%.

Take `CC(NC(=O)c1cc(C(F)(F)F)cc(C(F)(F)F)c1)c1nccnc1-c1ncn(-c2cccnc2[N+](=O)[O-])n1` (stereo not drawn) [Compound I-3, N-[1-[3-[1-(2-nitro-3-pyridyl)-1,2,4-triazol-3-yl]pyrazin-2-yl]ethyl]-3,5-bis(trifluoromethyl)benzamide]: the mortality at 2500 ppm in assay [2] and in assay [3] was not below 75% each time. Also, the mortality at 300 ppm in assay [4] was not below 75%.

Consider `CC(NC(=O)c1cc(C(F)(F)F)cc(C(F)(F)F)c1)c1nccnc1-c1ncn(-c2cccnc2Br)n1` (stereo not drawn) [Compound I-4, N-[1-[3-[1-(2-bromo-3-pyridyl)-1,2,4-triazol-3-yl]pyrazin-2-yl]ethyl]-3,5-bis(trifluoromethyl)benzamide], for which the mortality at 2500 ppm in assay [1], in assay [2], in assay [3] and in assay [5] was not below 75% each time. In addition, the mortality at 300 ppm in assay [4] was not below 75%.

In the case of `CC(NC(=O)c1cc(C(F)(F)F)cc(C(F)(F)F)c1)c1nccnc1-c1ncn(-c2ccccn2)n1` (stereo not drawn) [Compound I-6, N-[1-[3-[1-(2-pyridyl)-1,2,4-triazol-3-yl]pyrazin-2-yl]ethyl]-3,5-bis(trifluoromethyl)benzamide], the mortality at 2500 ppm in assay [1], in assay [2], in assay [3] and in assay [5] was not below 75% throughout. For the same compound, the mortality at 25 ppm in assay [2] came to 100%. Also, in assay [4], the mortality at 300 ppm was not below 75%.

In the case of `CC(c1nccnc1-c1ncn(-c2ccccn2)n1)N(C)C(=O)c1cc(C(F)(F)F)cc(C(F)(F)F)c1` (stereo not drawn) [Compound I-17, N-methyl-N-[1-[3-[1-(2-pyridyl)-1,2,4-triazol-3-yl]pyrazin-2-yl]ethyl]-3,5-bis(trifluoromethyl)benzamide], the mortality at 2500 ppm in assay [1], in assay [2], in assay [3] and in assay [5] was not below 75% each time. For the same compound, the mortality at 300 ppm in assay [4] was not below 75%.

On to `CC(NC(=O)c1cc(C(F)(F)F)cc(C(F)(F)F)c1)c1nccnc1-c1ncn(C)n1` (stereo not drawn) [WO2023/025617 I1-12, reference compound], for which the mortality at 25 ppm in assay [2] is 31%.
